Measured values as given in patent publication US20240059661A1, “SOLID STATE FORMS OF 2-(3,5-DICHLOROPHENYL)-1,3-BENZOXAZOLE-6-CARBOXYLIC ACID OR ITS PHARMACEUTICALLY ACCEPTABLE SALTS AND POLYMORPHS THEREOF” (CIPLA LIMITED, priority 2021, published 2024).

What was measured:
[1] = Forced degradation study (solid state stability) of Tafamidis Form C1; format: physicochemical
Source text: Forced degradation is synonymous with stress testing and purposeful degradation. Purposeful degradation can be a useful tool to predict the stability of a drug substance or a drug product with effects on purity, potency, and safety. It is imperative to know the impurity profile and behavior of a drug substance under various stress conditions. Forced degradation also plays an important role in the development of analytical methods, setting specifications, and design of formulations under the quality-by-design (QbD) paradigm. The nature of the stress testing depends on the individual drug substance and the type of drug product (e.g., solid oral dosage, lyophilized powders, and liquid formulations) involved.
A forced degradation study was performed to generate potential degradation products and assess stability liabilities. Tafamidis form C1 prepared as per the present disclosure was subjected to forced degradation study with below specified conditions. […] The samples were analysed at pre-determined time intervals for PXRD, HPLC purity and water content. […] The forced degradation results for Tafamidis Form C1 are tabulated below in Table 1.

[2] = Indicative stability of Tafamidis Form C1 on storage up to 6 months; format: physicochemical
Procedure: The stability of Tafamidis form C1 prepared as per the present disclosure was studied by storing the samples at 2-8° C., 25° C./60% RH; and 40° C./75% RH storage conditions upto 6 months. The samples were analysed for PXRD, HPLC purity and water content at pre-determined time intervals of 1M, 2M, 3M and 6M.
The stability data collected after 6 months of storage are tabulated below in Table 2.

Description ([1]; 0 D, Initial): off-white powder
HPLC Purity ([1]; 0 D, Initial): 99.98
PXRD ([1]; 0 D, Initial): Form C1
Water content KF ([1]; 0 D, Initial): 0.57%
Description ([1]; 5 D, 60°C/80% RH): off-white powder
HPLC Purity ([1]; 5 D, 60°C/80% RH): 99.97
Water content KF ([1]; 5 D, 60°C/80% RH): 0.62%
Description ([1]; 6 Hours (DHS), 105° C.): off-white powder
HPLC Purity ([1]; 6 Hours (DHS), 105° C.): 99.98
Description ([1]; 6 Hours, 120° C.): off-white powder
HPLC Purity ([1]; 6 Hours, 120° C.): 99.99
Description ([1]; 7 D, 25° C./60% RH Closed cup): off-white powder
HPLC Purity ([1]; 7 D, 25° C./60% RH Closed cup): 99.98
Water content KF ([1]; 7 D, 25° C./60% RH Closed cup): 0.42%
Description ([1]; 7 D, 25° C./60% RH Open cup): off-white powder
HPLC Purity ([1]; 7 D, 25° C./60% RH Open cup): 99.98
Water content KF ([1]; 7 D, 25° C./60% RH Open cup): 0.48%
Description ([1]; 7 D, 40° C./75% RH Closed cup): off-white powder
HPLC Purity ([1]; 7 D, 40° C./75% RH Closed cup): 99.98
Water content KF ([1]; 7 D, 40° C./75% RH Closed cup): 0.45%
Description ([1]; 7 D, 40° C./75% RH Open cup): off-white powder
HPLC Purity ([1]; 7 D, 40° C./75% RH Open cup): 99.98
Water content KF ([1]; 7 D, 40° C./75% RH Open cup): 0.72%
Description ([1]; 10 TORR): off-white powder
HPLC Purity ([1]; 10 TORR): 99.99
degradation under stress conditions ([1]; any of the stress conditions): did not show any degradation
change with respect to PXRD, HPLC purity and water content ([1]; forced degradation, all conditions of Table 1): no significant change
Description ([2]; 0, Initial): Off-white colour
HPLC Purity ([2]; 0, Initial): 99.99
PXRD ([2]; 0, Initial): Form C1
Water content KF ([2]; 0, Initial): 0.34%
Description ([2]; 1 month, 2-8° C.): Off-white colour
HPLC Purity ([2]; 1 month, 2-8° C.): 99.98
Water content KF ([2]; 1 month, 2-8° C.): 0.88%
Description ([2]; 1 month, 25° C./60% RH): Off-white colour
HPLC Purity ([2]; 1 month, 25° C./60% RH): 99.98
Water content KF ([2]; 1 month, 25° C./60% RH): 0.85%
Description ([2]; 1 month, 40° C./75% RH): Off-white colour
HPLC Purity ([2]; 1 month, 40° C./75% RH): 99.99
Water content KF ([2]; 1 month, 40° C./75% RH): 0.8%
Description ([2]; 2 months, 2-8° C.): Off-white colour
HPLC Purity ([2]; 2 months, 2-8° C.): 99.98
Water content KF ([2]; 2 months, 2-8° C.): 0.63%
Description ([2]; 2 months, 25° C./60% RH): Off-white colour
HPLC Purity ([2]; 2 months, 25° C./60% RH): 99.98
Water content KF ([2]; 2 months, 25° C./60% RH): 0.68%
Description ([2]; 2 months, 40° C./75% RH): Off-white colour
HPLC Purity ([2]; 2 months, 40° C./75% RH): 99.98
Water content KF ([2]; 2 months, 40° C./75% RH): 0.78%
Description ([2]; 3 months, 2-8° C.): Off-white colour
HPLC Purity ([2]; 3 months, 2-8° C.): 99.98
Water content KF ([2]; 3 months, 2-8° C.): 1.02%
Description ([2]; 3 months, 25° C./60% RH): Off-white colour
HPLC Purity ([2]; 3 months, 25° C./60% RH): 99.98
Water content KF ([2]; 3 months, 25° C./60% RH): 0.92%
Description ([2]; 3 months, 40° C./75% RH): Off-white colour
HPLC Purity ([2]; 3 months, 40° C./75% RH): 99.98
Water content KF ([2]; 3 months, 40° C./75% RH): 0.85%
Description ([2]; 6 months, 2-8° C.): Off-white colour
HPLC Purity ([2]; 6 months, 2-8° C.): 99.98
Water content KF ([2]; 6 months, 2-8° C.): 0.79%
Description ([2]; 6 months, 25° C./60% RH): Off-white colour
HPLC Purity ([2]; 6 months, 25° C./60% RH): 99.98
Water content KF ([2]; 6 months, 25° C./60% RH): 0.61%
Description ([2]; 6 months, 40° C./75% RH): Off-white colour
HPLC Purity ([2]; 6 months, 40° C./75% RH): 99.98
Water content KF ([2]; 6 months, 40° C./75% RH): 0.65%
change with respect to PXRD, HPLC purity and water content ([2]; all the storage conditions (2-8° C., 25° C./60% RH, 40° C./75% RH) up to 6 months): no significant change
SMILES: O=C(O)c1ccc2nc(-c3cc(Cl)cc(Cl)c3)oc2c1 [Form C1, 2-(3,5-Dichlorophenyl)-1,3-benzoxazole-6-carboxylic acid]
